Active and inactive are the calls of the source. The calls are words filed in the database; no cut-off is given here.

Consider 1 molecule from ChEMBL document CHEMBL5321227, “Lysosome-targeting phenalenones as efficient type I/II photosensitizers for anticancer photodynamic therapy” (Eur J Med Chem, 2023).

Data set [1] can be described thus: Stability of compound in GSH at 10 uM incubated for 30 mins by fluorescence assay. The data set is classed as physicochemical. Particulars: 0.5 h.
Data set [2] has as its system 4T1. Description: Antitumor activity against mouse 4T1 cells xenografted in BALB/c mouse assessed as tumor growth inhibition at 5 mg/kg,IT(Intratumoral) for 14 days relative to control. The data set is classed as functional, organism-based. Particulars: time 14.0 day.
The test system of data set [3] is MDA-MB-231. Description: Anticancer activity against human MDA-MB-231 cells assessed as reduction in cell viability at 0.01 to 10 uM incubated for 24 hrs by CCK-8 assay. The data set is classed as functional, cell-based. Particulars: dose 0.01-10 µM.
Data set [4] in a line: Photostability of compound in EtOH assessed as compound decomposition at 50 uM incubated for 5 to 20 mins under photoirradiation with 550nm and 10 J/cm^2 LED light by UV-visible spectroscopic analysis. It is filed as physicochemical. Particulars: time 5-20 min.
Data set [5] relates to MDA-MB-231. Description: Anticancer activity against human MDA-MB-231 cells assessed as number of dead cells at 2.5 uM incubated for 12 hrs by calcein-AM and propidium iodide staining based flow cytometry. The data set is classed as functional, cell-based.
Data set [6] relates to MDA-MB-231. Briefly: Anticancer activity against human MDA-MB-231 cells assessed as number of dead cells at 2.5 uM preincubated for 12 hrs followed by photoirradiation with 500 to 700nm and 12 J/cm^2 LED light for 10 mins by calcein-AM and propidium iodide staining based flow cytometry. Particulars: time 12.2 hrs. It is filed as functional, cell-based.
Data set [7] in a line: Drug uptake in heart of BALB/c mouse xenografted with mouse 4T1 cells at 5 mg/kg,IT(Intratumoral) and measured after 6 hrs by fluorescence imaging analysis. It is filed as ADME, organism-based. Particulars: in vivo, other.
A short description of data set [8]: Drug uptake in tumor of BALB/c mouse xenografted with mouse 4T1 cells at 5 mg/kg,IT(Intratumoral) and measured for 6 to 72 hrs by fluorescence imaging analysis. The data set is classed as ADME, organism-based, Neoplasm. Particulars: in vivo, other, time 6-72 hrs.
Data set [9] in a line: Toxicity in BALB/c mouse xenografted with mouse 4T1 cells assessed as tissue destruction with large spaces in liver at 5 mg/kg,IT(Intratumoral) for 14 days followed by photoirradiation with 500 to 700nm light (0.5 W) for 6 hrs by Hematoxylin and Eosin staining based microscopy. Particulars: in vivo, other, 342 h, time 14.25 day. It is filed as organism-based.
Data set [10] relates to MDA-MB-231. Description: Anticancer activity against human MDA-MB-231 cells assessed as reduction in cell viability preincubated for 2 hrs followed by photoirradiation with 500 to 700nm and 12 J/cm^2 LED light for 24 hrs by CCK-8 assay. The data set is classed as functional, cell-based. Particulars: MDA-MB-231, light or radiation study. (In general: Tetrazolium dyes change colour on reduction, which living cells bring about.)

A short description of data set [11]: Drug metabolism in mouse 4T1 cells assessed as increase in carboxylesterase mediated 6-amino-5-iodo-1H-phenalen-1-one release at 5 uM incubated for 2 hrs by confocal laser scanning microscopy. It is filed as ADME, cell-based. Particulars: 4t1, 2 h.
A short description of data set [12]: Toxicity in BALB/c mouse xenografted with mouse 4T1 cells assessed as body weight change at 5 mg/kg,IT(Intratumoral) for 14 days. It is filed as organism-based. Particulars: in vivo, other, 336 h, time 14 day.
Data set [13] concerns 4T1. Briefly: Anticancer activity against mouse 4T1 cells assessed as reduction in cell viability at 0.01 to 10 uM incubated for 24 hrs by CCK-8 assay. The data set is classed as functional, cell-based. Particulars: dose 0.01-10 µM.

As a reminder, the IC50 is the concentration that inhibits the measured activity by half. As for `O=C(CCl)Nc1c(I)cc2c3c(cccc13)C(=O)C=C2`, the Stability entry in data set [1] and in [4] was “Stable” in each case. Further, the outcome in the data set with 4T1 [2], in the data set with MDA-MB-231 [3], in the data set on MDA-MB-231 [6] and in the data set with 4T1 [13] was Active. Further, in the data set on MDA-MB-231 [5], the result was inactive. Moreover, the Drug uptake entry in data set [7] and in [8] was “Not Active” each time. Moreover, the Activity result in data set [9] and in data set [12] was “Toxic” in each case. In the data set on MDA-MB-231 [10], the IC50 is 1.59 µM. The Drug metabolism result in data set [11] is “Metabolite_Detected”.
